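The compound was tested at five concentrations on cells cultured in 96-well plates, with a 48-hour exposure period. GI50: concentration for 50% inhibition of growth.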 Calls of active or inactive are those of the source. No stated cut-off is given here; in the data, active = GI50 up to about 1.1 µM and inactive = higher.
What was measured:
Test in all cases: inhibition of tumour cell growth, NCI panel, 48 h
[1] = system: A498
[2] = system: CCRF-CEM
[3] = system: HCT-116
[4] = system: HOP-92
[5] = system: Hs-578T
[6] = system: IGROV-1
[7] = system: K562
[8] = system: LOX IMVI
[9] = system: NCI-H23
[10] = system: NCI-H460
[11] = system: NCI-H522
[12] = system: OVCAR-4
[13] = system: RPMI-8226
[14] = system: SK-MEL-28
[15] = system: SK-MEL-2
[16] = system: SR
[17] = system: SW-620
[18] = system: T47D
[19] = system: EKVX
[20] = system: SK-OV-3

Row | Compound | GI50 [1] | GI50 [2] | GI50 [3] | GI50 [4] | GI50 [5] | GI50 [6] | GI50 [7] | GI50 [8] | GI50 [9] | GI50 [10] | GI50 [11] | GI50 [12] | GI50 [13] | GI50 [14] | GI50 [15] | GI50 [16] | GI50 [17] | GI50 [18] | GI50 [19] | GI50 [20]
1 | N[C@@H]1CCN(c2c(F)cc3c(=O)c(C(=O)O)cn4c3c2Oc2cc3c(ccc5ccccc53)cc2-4)C1 | 4.83 µM (inactive) | 0.0482 µM (active) | 1.64 µM (inactive) | 2.72 µM (inactive) | 15.9 µM (inactive) | 1.82 µM (inactive) | 2.54 µM (inactive) | 2.34 µM (inactive) | 3.06 µM (inactive) | 0.735 µM (active) | 3.85 µM (inactive) | 4.36 µM (inactive) | 4.3 µM (inactive) | > 21.1 µM (inactive) | 5.18 µM (inactive) | 0.659 µM (active) | 1.41 µM (inactive) | 4.56 µM (inactive) |  | 
2 | CN1CCCCC(C#N)(c2ccccc2)CC1 (configuration not stated) | > 100 µM (inactive) | > 100 µM (inactive) | > 100 µM (inactive) | > 100 µM (inactive) | > 100 µM (inactive) | > 100 µM (inactive) | > 100 µM (inactive) |  | > 100 µM (inactive) | > 100 µM (inactive) |  | > 100 µM (inactive) | > 100 µM (inactive) | > 100 µM (inactive) |  | > 100 µM (inactive) | > 100 µM (inactive) | > 100 µM (inactive) | > 100 µM (inactive) | > 100 µM (inactive)
3 | C[n+]1c2ccccc2c2/c(=C\C#N)c3ccccc3n21 | 20 µM (inactive) | 3.66 µM (inactive) | 3.03 µM (inactive) |  | 4.21 µM (inactive) | 3 µM (inactive) | 5.42 µM (inactive) | 3.48 µM (inactive) | 5.11 µM (inactive) | 4.35 µM (inactive) |  | 2.79 µM (inactive) | 3.28 µM (inactive) | 9.25 µM (inactive) | 3.49 µM (inactive) | 3.91 µM (inactive) | 3.07 µM (inactive) | 5.73 µM (inactive) | 2.44 µM (inactive) | 3.88 µM (inactive)
4 | CC(=O)O[C@H]1C(=O)[C@@]2(C)[C@H]([C@H](OC(=O)c3ccc(F)cc3)[C@]3(O)C[C@H](OC(=O)[C@H](O)[C@@H](NC(=O)c4ccccc4)c4ccccc4)C(C)=C1C3(C)C)[C@]1(OC(C)=O)CO[C@@H]1C[C@@H]2O | 0.202 µM (active) | 0.00819 µM (active) | 0.00608 µM (active) |  | 0.00536 µM (active) | 0.0233 µM (active) | 0.00859 µM (active) | 0.00828 µM (active) | 0.124 µM (active) | 0.0132 µM (active) | 0.0116 µM (active) | 6.58 µM (inactive) | 0.00592 µM (active) | 9.48 µM (inactive) | 0.0597 µM (active) | 0.0108 µM (active) | 0.0065 µM (active) | 0.00931 µM (active) | 2 µM (inactive) | 0.0159 µM (active)
5 | CC/C(=C\c1ccc(Cl)c(Cl)c1)[N+](=O)[O-] | 8.18 µM (inactive) |  | 3.66 µM (inactive) |  | 3.48 µM (inactive) | 1.64 µM (inactive) | 2.13 µM (inactive) | 0.405 µM (active) | 2.34 µM (inactive) | 2.42 µM (inactive) | 1.72 µM (inactive) | 3 µM (inactive) | 1.92 µM (inactive) | 2.06 µM (inactive) | 2.28 µM (inactive) | 0.948 µM (active) | 3.03 µM (inactive) | 2.93 µM (inactive) | 2.76 µM (inactive) | 
6 | Nc1nc(Cl)nc(NCc2ccccc2)n1 | > 100 µM (inactive) | > 100 µM (inactive) | > 100 µM (inactive) | > 100 µM (inactive) | > 100 µM (inactive) | > 100 µM (inactive) | > 100 µM (inactive) | > 100 µM (inactive) | > 100 µM (inactive) | > 100 µM (inactive) |  | > 100 µM (inactive) | > 100 µM (inactive) | > 100 µM (inactive) | > 100 µM (inactive) | 67.8 µM (inactive) | > 100 µM (inactive) | > 100 µM (inactive) | > 100 µM (inactive) | > 100 µM (inactive)
7 | COC(=O)[C@H](CNC(=O)/C=C/c1ccc(OC(C)=O)c(OC(C)=O)c1)NC(=O)/C=C/c1ccc(OC(C)=O)c(OC(C)=O)c1 | > 100 µM (inactive) | 39.3 µM (inactive) | > 100 µM (inactive) | > 100 µM (inactive) | > 100 µM (inactive) | > 100 µM (inactive) | > 100 µM (inactive) | > 100 µM (inactive) | > 100 µM (inactive) | > 100 µM (inactive) |  | > 100 µM (inactive) | > 100 µM (inactive) | > 100 µM (inactive) | > 100 µM (inactive) | > 100 µM (inactive) | > 100 µM (inactive) | 44.4 µM (inactive) | > 100 µM (inactive) | > 100 µM (inactive)

From ChEMBL document CHEMBL1201862, “PubChem BioAssay data set” (2004)
